Target: T1, human OX2R (Homo sapiens, UniProt O43614)
T1 construct: expressed in transfected cells; host or cells: CHO (Chinese hamster ovary) cells, grown under G418 selection
T1 sequence (O43614 1-444): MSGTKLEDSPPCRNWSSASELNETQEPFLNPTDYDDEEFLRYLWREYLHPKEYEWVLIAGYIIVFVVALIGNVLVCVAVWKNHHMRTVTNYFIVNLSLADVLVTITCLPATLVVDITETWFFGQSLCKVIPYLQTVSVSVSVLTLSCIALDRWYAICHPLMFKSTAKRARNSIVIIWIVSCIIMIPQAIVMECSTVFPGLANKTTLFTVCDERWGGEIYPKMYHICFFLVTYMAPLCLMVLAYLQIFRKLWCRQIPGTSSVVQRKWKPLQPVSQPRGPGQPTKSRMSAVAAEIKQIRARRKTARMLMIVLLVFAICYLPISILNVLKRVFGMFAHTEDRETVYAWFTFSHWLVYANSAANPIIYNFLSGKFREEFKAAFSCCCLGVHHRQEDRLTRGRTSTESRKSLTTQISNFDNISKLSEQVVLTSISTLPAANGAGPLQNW
Experiment: IP-One (IPOne) orexin receptor agonist assay in CHO cells expressing human OX2R
Assay type: cell-based
Conditions: for EC50: CHO cells expressing human OX2R, IP-One IP-1 detection, 2 hours incubation, four parameter logistic fit, read-out: OX2R Potency, EC50; for % of reference agonist maximal effect: human OX2R, percentage of sample raw value/mean max effect (reference compound at 1 uM with 100% activity)
Description: The utility of the compounds in accordance with the present invention as orexin receptor OX1R and/or OX2R agonists may be readily determined without undue experimentation by methodology well known in the art. Both the OX1R and/or OX2R G-coupled protein receptors (GPCRs) couple through the Gαq signaling pathway, which ultimately promotes calcium mobilization via inositol triphosphate (IP3) production. The half-life of IP-3 is relatively short, being rapidly metabolized to inositol monophosphate (IP-1), which can be readily detected using a commercially available assay kit (IP-One; Cisbio; cat #621PAPEC) coupled with a cell line expressing the target receptor(s) of interest. The utility of the compounds in accordance with the present invention as orexin receptor OX1R and/or OX2R agonists may be determined utilizing this assay.
In a typical experiment, the OX1 and OX2 receptor agonist activity is determined in accordance with the following general experimental method. Chinese hamster ovary (CHO) cells expressing human OX1R and/or the human OX2R were grown in Iscove's modified DMEM containing glutaMAX™, 1% G418, 100 U/mL penicillin, 100 μg/mL streptomycin and 10% heat-inactivated qualified fetal bovine serum (FBS). The OX2R cells were seeded at 10,000 cells/well/50 μL and the OX1R cells were seeded at 20,000 cells/well/50 μL into 384-well white tissue culture plates (Greiner; cat #781080). All cell/media reagents were from GIBCO-Invitrogen Corp. The seeded cell plate(s) were incubated at 37° C. with 5% CO2 and 85% humidity for 20-24 hours. On the day of the assay, assay-ready compound plates were prepared using an acoustic liquid handler (ECHO; Labcyte), which dispensed sufficient volume of test compound stock (10 mM in DMSO) or 100% DMSO to prepare 10 point, ½-log dilutions in a final volume of 202.5 nL/well in all test wells of a 384-well diamond plate (Labcyte). Following completion of assay-ready plates, importantly, the next three steps were performed with minimal delay: 1) 20 μl of 1× stimulation buffer was added to the compound plate using a Multidrop Combi (small cassette, Thermo Fisher Scientific cat #24073290); 2) culture medium was removed from the cell plate using the Bluewasher plate washer (gentle spin; BlueCatBio); 3) 14 μl of compound/stimulation buffer mixture was added to the cell plate using a Bravo liquid handler (Agilent) prior to incubating cell plates at 37° C. with 5% CO2 and 85% humidity for 1 or 2 hours (OX1R and OX2R, respectively). During this incubation, IP-one detection reagents were prepared (38:1:1 lysis buffer:D2:AB-cryptate reagents). Six μL of mixed detection reagents were added to the cell plate using a Multidrop Combi (small cassette, Thermo Fisher Scientific cat #24073290) and incubated 60 minutes at room temperature in the dark. Fluorescence signal was detected using an Envision plate reader (Perkin Elmer) [LANCE/DELFIA Dual Enh (Em: APC 665; Ex: Cy5 620)].
For each compound, data were fit to a four parameter logistic fit (ActivityBase software) and the EC50 was reported as the inflection point of the resulting curve. Percent effect for each test compound was determined as the percentage of sample raw value/mean max effect, where the mean max effect was derived from the mean raw value of 32 control wells per assay plate (using Orexin A (cat #003-30) at 1 μM for human OX1R and a reference compound at 1 uM with 100% activity previously established by comparison to Orexin A for human OX2R). The intrinsic orexin receptor agonist activity of a compound which may be used in the present invention may be determined by these assays.

Row | EC50 [nM] | % of reference agonist maximal effect [%] | Compound
1 | 348 | 100.4 | Cc1cn[nH]c1[C@H]1CCCN(C(=O)OCC(F)F)[C@H]1CO[C@H]1CC[C@@H](c2ccccc2)CC1 (relative stereo) [Example 24, 2,2-difluoroethyl (CIS)-3-(4-methyl-1H-pyrazol-5-yl)-2-((((CIS)-4-phenylcyclohexyl)oxy)methyl)piperidine-1-carboxylate]
2 | 879 | 92.8 | COC(=O)N1CCC[C@H](c2[nH]ncc2C(F)(F)F)[C@@H]1CO[C@H]1CC[C@@H](c2ccccc2)CC1 (relative stereo) [Example 25, methyl (CIS)-2-((((CIS)-4-phenylcyclohexyl)oxy)methyl)-3-(4-(trifluoromethyl)-1H-pyrazol-5-yl)piperidine-1-carboxylate]
3 | 2430 | 83.6 | COC(=O)N1CCC[C@H](c2ncn[nH]2)[C@@H]1CO[C@H]1CC[C@@H](c2ccccc2)CC1 (relative stereo) [Example 26, methyl (CIS)-2-((((CIS)-4-phenylcyclohexyl)oxy)methyl)-3-(1H-1,2,4-triazol-5-yl)piperidine-1-carboxylate]
4 | 3510 | 82.5 | CCNC(=O)N1CCC[C@H](c2ccn(C)n2)[C@@H]1CO[C@H]1CC[C@@H](c2ccccc2)CC1 (relative stereo) [Example 27, (CIS)-N-ethyl-3-(1-methyl-1H-pyrazol-3-yl)-2-((((CIS)-4-phenylcyclohexyl)oxy)-methyl)piperidine-1-carboxamide]
5 | 5960 | 22.9 | CCNC(=O)N1CC[C@H](c2cc[nH]n2)[C@@H]1CO[C@H]1CC[C@@H](c2ccccc2)CC1 (relative stereo) [Example 28, (CIS)-N-ethyl-2-((((CIS)-4-phenylcyclohexyl)ox)methyl)-3-(1H-pyrazol-3-yl)pyrrolidine-1-carboxamide]
6 | 2920 | 87.6 | O=C(OCCF)N1CCCC(c2ccn[nH]2)C1CO[C@H]1CC[C@@H](c2c(F)ccc(F)c2F)CC1 (relative stereo) [Example 30, 2-Fluoroethyl 3-(1H-pyrazol-5-yl)-2-((((CIS)-4-(2,3,6-trifluorophenyl)cyclohexyl)oxy)methyl)-piperidine-1-carboxylate]
7 | 7440 | 72.7 | O=C(OCC(F)(F)F)N1CCCC(c2ccn[nH]2)C1CO[C@H]1CC[C@@H](c2c(F)ccc(F)c2F)CC1 (relative stereo) [Example 31, 2,2,2-Trifluoroethyl 3-(1H-pyrazol-5-yl)-2-((((CIS)-4-(2,3,6-trifluorophenyl)cyclohexyl)-oxy)methyl)piperidine-1-carboxylate]
8 | 3730 | 86.3 | O=C(CO)N1CCCC(c2ccn[nH]2)C1CO[C@H]1CC[C@@H](c2c(F)ccc(F)c2F)CC1 (relative stereo) [Example 32, 1-(3-(1H-Pyrazol-5-yl)-2-((((CIS)-4-(2,3,6-trifluorophenyl)cyclohexyl)oxy)methyl)piperidin-1-yl)-2-hydroxyethan-1-one]
9 | 41.2 | 100.8 | COC(=O)N1CCC[C@H](c2n[nH]cc2I)[C@@H]1CO[C@H]1CC[C@@H](c2ccccc2)CC1 (relative stereo) [Example 42, Methyl cis-3-(4-iodo-1H-pyrazol-3-yl)-2-((((CIS)-4-phenylcyclohexyl)oxy)methyl)piperidine-1-carboxylate]
10 | 351 | 99.6 | COCc1c[nH]nc1[C@H]1CCCN(C(=O)OC)[C@H]1CO[C@H]1CC[C@@H](c2ccccc2)CC1 (relative stereo) [Example 57, Methyl cis-3-(4-(methoxymethyl)-1H-pyrazol-3-yl)-2-((((CIS)-4-phenylcyclohexyl)oxy)methyl)-piperidine-1-carboxylate]
11 | 3060 | 68.1 | COC(=O)N1CCC[C@H](c2cccc(O)n2)[C@@H]1CO[C@H]1CC[C@@H](c2ccccc2)CC1 (relative stereo) [Example 64, Methyl (CIS)-3-(6-hydroxypyridin-2-yl)-2-((((CIS)-4-phenylcyclohexyl)oxy)methyl)piperidine-1-carboxylate]
12 | 174 | 98.1 | COC(=O)N1CCC[C@@H](c2csc(O)n2)[C@H]1CO[C@H]1CC[C@@H](c2ccccc2)CC1 (relative stereo) [Example 65]
13 | 808 | 98.8 | COC(=O)N1CCC[C@H](c2nc(O)ccc2C)[C@@H]1CO[C@H]1CC[C@@H](c2ccccc2)CC1 (relative stereo) [Example 66, methyl (CIS)-3-(6-hydroxy-3-methylpyridin-2-yl)-2-((((CIS)-4-phenylcyclohexyl)oxy)methyl)piperidine-1-carboxylate]
14 | 292 | 100.0 | C[C@@H]1C[C@H]1C(=O)N1CCC[C@H](c2cc[nH]n2)[C@@H]1CO[C@H]1CC[C@@H](c2ccccc2)CC1 (relative stereo) [Example 70, ((TRANS)-2-methylcyclopropyl)((CIS)-2-((((CIS)-4-phenylcyclohexyl)oxy)methyl)-3-(1H-pyrazol-3-yl)piperidin-1-yl)methanone]
15 | 3220 | 79.3 | CC(C)C(=O)N1CCC[C@H](c2cc[nH]n2)[C@@H]1CO[C@H]1CC[C@@H](C(C)C)CC1 (relative stereo) [Example 73, 1-((CIS)-2-((((CIS)-4-isopropylcyclohexyl)oxy)methyl)-3-(1H-pyrazol-3-yl)piperidin-1-yl)-2-methylpropan-1-one]
16 | 3280 | 94.3 | O=C(CC1COC1)N1CCC[C@H](c2cc[nH]n2)[C@@H]1CO[C@H]1CC[C@@H](c2ccccc2)CC1 (relative stereo) [Example 74, 2-(oxetan-3-yl)-1-((CIS)-2-((((CIS)-4-phenylcyclohexyl)oxy)methyl)-3-(1H-pyrazol-3-yl)piperidin-1-yl)ethan-1-one]
17 | 3630 | 95.7 | CC(C)[C@H]1CC[C@@H](OC[C@H]2[C@@H](c3cc[nH]n3)CCCN2C(=O)C2CC2)CC1 (relative stereo) [Example 75, cyclopropyl((CIS)-2-((((CIS)-4-isopropylcyclohexyl)oxy)methyl)-3-(1H-pyrazol-3-yl)piperidin-1-yl)methanone]
18 | 4130 | 94.6 | CC1CC1C(=O)N1CCC[C@H](c2cc[nH]n2)[C@@H]1CO[C@H]1CC[C@@H](C(C)C)CC1 (relative stereo) [Example 76, ((CIS)-2-((((CIS)-4-isopropylcyclohexyl)oxy)methyl)-3-(1H-pyrazol-3-yl)piperidin-1-yl)(2-methylcyclopropyl)methanone]
